Assay [1] concerns the target T1, UDP-N-acetylenolpyruvoylglucosamine reductase (Escherichia coli K-12, UniProt P08373).
T1 sequence (P08373 whole entry): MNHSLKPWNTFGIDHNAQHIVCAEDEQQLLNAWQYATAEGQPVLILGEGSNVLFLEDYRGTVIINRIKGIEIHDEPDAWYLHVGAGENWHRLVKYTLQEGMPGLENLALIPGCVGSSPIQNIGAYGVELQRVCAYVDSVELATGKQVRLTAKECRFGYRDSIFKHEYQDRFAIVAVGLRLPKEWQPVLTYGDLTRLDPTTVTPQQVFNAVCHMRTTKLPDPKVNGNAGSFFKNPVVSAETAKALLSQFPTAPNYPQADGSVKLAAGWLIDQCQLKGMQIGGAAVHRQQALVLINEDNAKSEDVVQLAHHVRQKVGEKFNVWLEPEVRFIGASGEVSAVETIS
Put plainly: Inhibition of bacterial enzyme UDP-N-acetylmuramate dehydrogenase.

The nature of assay [2]: Compound was tested for in vitro inhibitory activity against the bacterial enzyme UDP-N-acetylmuramate dehydrogenase.

As usually defined, the IC50 is the concentration that inhibits the measured activity by half. In the case of `CC1SC(c2cccc(Oc3ccc(C(C)(C)C)cc3)c2)N([C@@H](CC(=O)O)C(=O)O)C1=O` (stereo partly specified), the IC50 entry in assay [1] is on record as “Not Active”.

The compound `CCCC[C@H](C(=O)O)N1C(=O)C(CC(=O)NNc2ccccc2)SC1c1cccc(Oc2ccc(C(C)(C)C)cc2)c1` (stereo partly specified) registered an IC50 in assay [2] of 7.7 µM.

As for `CC(C)(C)c1ccc(Oc2cccc(C3SC(CC(=O)NNc4ccccc4)C(=O)N3[C@@H](Cc3ccccc3)C(=O)O)c2)cc1` (stereo partly specified), the IC50 result in assay [1] is listed as “Not Active”.

For the compound `CC(C)(C)c1ccc(Oc2cccc(C3SCC(=O)N3[C@@H](Cc3ccccc3)C(=O)O)c2)cc1` (stereo partly specified), the IC50 result in assay [1] is reported as “Not Active”.

`CC(C)(C)c1ccc(Oc2cccc(C3SCC(=O)N3[C@@H](CCCN)C(=O)O)c2)cc1` (stereo partly specified): the IC50 result in assay [1] is “Not Active”.

For the compound `CC1SC(c2cccc(Oc3ccc(C(C)(C)C)cc3)c2)N([C@@H](CO)C(=O)O)C1=O` (stereo partly specified), in assay [1], the half-maximal inhibitory concentration (IC50) result is listed as “Not Active”.

Regarding `CC(C)(C)c1ccc(Oc2cccc(C3SCC(=O)N3[C@@H](CO)C(=O)O)c2)cc1` (stereo partly specified), the IC50 entry in assay [1] is reported as “Not Active”.

In turn, `CCCC[C@@H](C(=O)O)N1C(=O)C(CC(=O)NNc2ccccc2)SC1c1cccc(Oc2ccc(C(C)(C)C)cc2)c1` (stereo partly specified) displayed an IC50 in assay [2] of 11 µM.

In the case of `CC1SC(c2cccc(Oc3ccc(C(C)(C)C)cc3)c2)N(CC(=O)O)C1=O` (stereo unspecified), the IC50 entry in assay [1] is recorded as “Not Active”.

Turning to `CCCC[C@@H](C(=O)O)N1C(=O)CSC1c1cccc(Oc2ccc(C(C)(C)C)cc2)c1` (stereo partly specified), in assay [2], half-maximal inhibition (IC50) required 28.4 µM.

In the case of `CCCC[C@H](C(=O)O)N1C(=O)CSC1c1cccc(Oc2ccc(C(C)(C)C)cc2)c1` (stereo partly specified), the IC50 in assay [2] was 7.7 µM.

With `CC1SC(c2cccc(Oc3ccc(C(C)(C)C)cc3)c2)N([C@@H](Cc2ccccc2)C(=O)O)C1=O` (stereo partly specified), the IC50 entry in assay [1] is “Not Active”.

For the compound `CC(C)(C)c1ccc(Oc2cccc(C3SCC(=O)N3CC(=O)O)c2)cc1` (stereo unspecified), the IC50 result in assay [1] was “Not Active”.

In the case of `CC(C)(C)c1ccc(Oc2cccc(C3SC(CC(=O)NNc4ccccc4)C(=O)N3[C@@H](CC(=O)O)C(=O)O)c2)cc1` (stereo partly specified), the IC50 result in assay [1] was “Not Active”.

Turning to `CC(C)(C)c1ccc(Oc2cccc(C3SCC(=O)N3[C@@H](CC(=O)O)C(=O)O)c2)cc1` (stereo partly specified), the IC50 entry in assay [1] is reported as “Not Active”.

For the compound `CCCC[C@H](C(=O)O)N1C(=O)C(C)SC1c1cccc(Oc2ccc(C(C)(C)C)cc2)c1` (single isomer, unassigned), the IC50 in assay [2] turned out to be 10 µM.

`CC(C)(C)c1ccc(Oc2cccc(C3SC(CC(=O)NNc4ccccc4)C(=O)N3CC(=O)O)c2)cc1` (stereo unspecified): the IC50 result in assay [1] is “Not Active”.

For `CC(C)(C)c1ccc(Oc2cccc(C3SC(CC(=O)NNc4ccccc4)C(=O)N3[C@@H](CCCN)C(=O)O)c2)cc1` (stereo partly specified), the IC50 result in assay [1] is given as “Not Active”.

With `CCCC[C@@H](C(=O)O)N1C(=O)C(C)SC1c1cccc(Oc2ccc(C(C)(C)C)cc2)c1` (stereo partly specified), the midpoint of inhibition in assay [2], the IC50, lay at 14 µM.

For `CC1SC(c2cccc(Oc3ccc(C(C)(C)C)cc3)c2)N([C@@H](CCCN)C(=O)O)C1=O` (stereo partly specified), in assay [1], the IC50 entry was “Not Active”.

Consider `CC(C)(C)c1ccc(Oc2cccc(C3SC(CC(=O)NNc4ccccc4)C(=O)N3[C@@H](CO)C(=O)O)c2)cc1` (stereo partly specified), for which the IC50 result in assay [1] was “Not Active”.

For the origin of these results see ChEMBL document CHEMBL1133327, “4-Thiazolidinones: novel inhibitors of the bacterial enzyme MurB” (Bioorg Med Chem Lett, 2000).
